From patent US11319311B2, “Crystalline forms of Actinomycin D for treatment of cancer” (TRANSGENEX NANOBIOTECH, INC., priority 2018, dated 2022)
Read-outs that look alike come from different tables or passages of the source.

Experiments:
A549 = assay: Monolayer cell culture IC50 (CellTiter-Glo viability), A549; type: cell-based; settings: Lung, 72 hours treatment, average of three replications
Experimental: (§1) Cancer cell lines listed in Table 1 were subjected for testing anti-cancer potency or the half maximal inhibitory concentration (IC50) of the D-Actinomycin (DACT) molecular complexes.
(§2) The SK-ES-1, U-2 OS, and SAOS-2 cells were cultured in a growth medium that is ATCC-formulated McCoy's 5a Medium Modified, Catalog No. 30-2007. The PC-3, PANC-1, SK-Mel-5, A549, H460, and H1299 were cultured in a growth medium that is ATCC-formulated Dulbecco's Modified Eagle's Medium (DMEM), Catalog No. 30-2002. The cells were seeded on 96-well microtiter plates with 3500 cells per well and cultured in an incubator (Model 3120, Thermo Scientific, USA) with a constant temperature at 37° C. and 5% carbon dioxide (CO2) gas for 24 hours.
(§3) The new DACT-molecular complexes were made into a series with concentration of 200 nM to 40 nM, 8 nM, 1.6 nM, 0.32 nM, and 0.064 nM. 100 μl of each solution was then added into each well to bring out the final concentration of the drug treatment at 100 nM, 20 nM, 4 nM, 0.8 nM, 0.16 nM, or 0.032 nM, respectively.
(§4) The treated cells in the 96 well plate was then further cultured at the same conditions for 72 hours and then subjected for a final cell viability measurement. The measurement used a homogeneous method to determine the number of metabolically active cells presented in each of treatments. A testing reagent for the measurement is a mixture solution of the CellTiter-Glo® 2.0 reagent (CTG, Promega Cat #G9243, USA) and growth medium in 1:1 ratio in this respect.
(§5) The 96-well plate with the new molecular complex treated cells was taken out from incubator after the 72 hours of incubation, and the treatment solution in each well was removed using a multichannel pipette, and 100 μl of the testing reagent were added into each well. The plate was then placed on a plate shaker for 15 min. The plate was covered with a piece of aluminum foil to protect the CTG luminescence during the shaking time.
(§6) Then 90 μl of the 100 μl testing reagent were transferred into an opaque-walled 96-well plate for the CTG luminescence reading on a plate reader (SynergyH4 Hybrid Reader, Biotek, USA). The luminescence intensity of each treatment was positively correlated with the number of cells survived during the treatments.
(§7) All the treatment data was normalized by comparing with the control samples that had only growth medium without any molecular complexes. The half maximal inhibitory concentration (IC50) data was calculated using the nonlinear regression model and dose-responses (inhibition) curve built in the software. Each of treatments was performed in three replications each time and repeated three times for validation. The IC50 average […] (Avg) and standard deviation (STDV) were calculated based on the three replications.

H460 = assay: Monolayer cell culture IC50 (CellTiter-Glo viability), H460; type: cell-based; settings: Lung, 72 hours treatment, average of three replications
Experimental: as §1, §2, §3, §4, §5, §6, §7

PANC-1 = assay: Monolayer cell culture IC50 (CellTiter-Glo viability), PANC-1; type: cell-based; settings: Pancreatic, PANC-1, monolayer, 72 hours treatment, average of three replications
Experimental: as §1, §2, §3, §4, §5, §6, §7

PC-3 = assay: Monolayer cell culture IC50 (CellTiter-Glo viability), PC-3; type: cell-based; settings: Prostate, PC-3, monolayer, 72 hours treatment, average of three replications
Experimental: as §1, §2, §3, §4, §5, §6, §7

U-2 OS = assay: Monolayer cell culture IC50 (CellTiter-Glo viability), U-2 OS; type: cell-based; settings: Sarcoma, U-2 OS, monolayer, 72 hours treatment, average of three replications
Experimental: as §1, §2, §3, §4, §5, §6, §7

H1299 = assay: Monolayer cell culture IC50 (CellTiter-Glo viability), H1299; type: cell-based; settings: Lung, 72 hours treatment, average of three replications
Experimental: as §1, §2, §3, §4, §5, §6, §7

SK-ES-1 = assay: Monolayer cell culture IC50 (CellTiter-Glo viability), SK-ES-1; type: cell-based, human; settings: Sarcoma, SK-ES-1, monolayer, 72 hours treatment, average of three replications
Experimental: as §1, §2, §3, §4, §5, §6, §7

[1] = Accelerated stability studies (PXRD physical form stability); type: physicochemical; settings: accelerated conditions 75% humidity and 40° C., one year, by PXRD
Experimental: Stability studies of the DACT novel forms were conducted using accelerated conditions (75% humidity and 40° C.) of which are obvious to the artisan in the field, for more than one year. […] Selected data of the novel complexes of DACT:methylparaben, propylparaben and diphenic acid proves this point.

SK-Mel-5 = assay: Monolayer cell culture IC50 (CellTiter-Glo viability), SK-Mel-5; type: cell-based; settings: Skin, SK-Mel-5, monolayer, 72 hours treatment, average of three replications
Experimental: as §1, §2, §3, §4, §5, §6, §7

[2] = Test I, read-out: IC50 Test (I) Avg
[3] = Test II, read-out: IC50 Test (II) Avg
[4] = Test III, read-out: IC50 Test (III) Avg

**Q.** Which results are given for CCCOC(=O)c1ccc(O)cc1.Cc1c2oc3c(C)ccc(C(=O)NC4C(=O)NC(C(C)C)C(=O)N5CCCC5C(=O)N(C)CC(=O)N(C)C(C(C)C)C(=O)OC4C)c3nc-2c(C(=O)NC2C(=O)NC(C(C)C)C(=O)N3CCCC3C(=O)N(C)CC(=O)N(C)C(C(C)C)C(=O)OC2C)c(N)c1=O (stereo not shown) [DACT-propylparaben]?
**A.** IC50 (A549; [2]): 1.39 nM; IC50 (A549; [3]): 1.74 nM; IC50 (A549; [4]): 1.63 nM; IC50 (H460; [2]): 0.21 nM; IC50 (H460; [3]): 0.3 nM; IC50 (H460; [4]): 0.15 nM; IC50 (PANC-1; [2]): 4.61 nM; IC50 (PANC-1; [3]): 1.71 nM; IC50 (PANC-1; [4]): 3.29 nM; IC50 (PC-3; [2]): 7.68 nM; IC50 (PC-3; [3]): 4.52 nM; IC50 (PC-3; [4]): 6.34 nM; IC50 (U-2 OS; [2]): 3.63 nM; IC50 (U-2 OS; [3]): 3.85 nM; IC50 (U-2 OS; [4]): 1.79 nM; IC50 (H1299; [2]): 1.48 nM; IC50 (H1299; [3]): 0.96 nM; IC50 (H1299; [4]): 1.05 nM; IC50 (SK-ES-1; [2]): 0.76 nM; IC50 (SK-ES-1; [3]): 0.34 nM; IC50 (SK-ES-1; [4]): 0.49 nM; physical form stability [1]: stable; IC50 (SK-Mel-5; [2]): 0.39 nM; IC50 (SK-Mel-5; [3]): 0.27 nM; IC50 (SK-Mel-5; [4]): 2.59 nM
